Source: PubChem BioAssay (NCI)
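Where inhibition never reached the appropriate level, the endpoint shown equals the highest concentration tested. Otherwise, values were interpolated linearly from a five-concentration, 48-hour dose response in 96-well plates. Here, GI50 denotes the concentration required for 50% inhibition of growth. TGI denotes the concentration required for complete inhibition of growth.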

Assays:
Test in all cases: growth of human tumour cells (NCI), 48 h
A549 NSCLC = test system: A549 NSCLC
LOX IMVI melanoma = test system: LOX IMVI melanoma
NCI-H226 lung = test system: NCI-H226 lung
NCI-H23 lung = test system: NCI-H23 lung
NCI-H522 lung = test system: NCI-H522 lung
SF-539 CNS = test system: SF-539 CNS
SK-MEL-5 melanoma = test system: SK-MEL-5 melanoma
SK-OV-3 ovarian = test system: SK-OV-3 ovarian
SNB-75 CNS = test system: SNB-75 CNS
BT-549 breast = test system: BT-549 breast

Compound	TGI (A549 NSCLC)	TGI (LOX IMVI melanoma)	TGI (NCI-H226 lung)	TGI (NCI-H23 lung)	TGI (NCI-H522 lung)	TGI (SF-539 CNS)	TGI (SK-MEL-5 melanoma)	TGI (SK-OV-3 ovarian)	TGI (SNB-75 CNS)	GI50 (A549 NSCLC)	GI50 (BT-549 breast)	TGI (BT-549 breast)	GI50 (LOX IMVI melanoma)	GI50 (NCI-H226 lung)	GI50 (NCI-H23 lung)	GI50 (NCI-H522 lung)	GI50 (SK-MEL-5 melanoma)	GI50 (SK-OV-3 ovarian)	GI50 (SF-539 CNS)	GI50 (SNB-75 CNS)
O=C(O)C[C@H]1CCCCC12CCOC2=O (stereo partly specified)	> 100 µM	> 100 µM	> 100 µM	> 100 µM	> 100 µM	> 100 µM	> 100 µM	> 100 µM	> 100 µM											
Oc1ccc(O)c(-c2cn3ccsc3n2)c1	48.9 µM	21.3 µM	33.6 µM	64.3 µM	> 100 µM		25.2 µM	51.6 µM		22.9 µM	5.61 µM	21 µM	5.68 µM	9.11 µM	16.9 µM	4.29 µM	12.7 µM	19.1 µM		
Cc1ccc2ncnc(N(CC(C)C)CC(C)C)c2c1	25.3 µM	34.4 µM	34.8 µM	28.5 µM	> 100 µM		25.6 µM	29.7 µM		9.43 µM			16.2 µM	15.2 µM	11.1 µM	18.9 µM	6.9 µM	14.2 µM		
COc1ccc(C(=O)c2cc(OC)c(OC)c(OC)c2)cc1/C=C/C(=O)c1ccc(OC)c(OC)c1		4.75 µM		> 100 µM		> 100 µM		> 100 µM	> 100 µM				0.559 µM		4.13 µM			5.76 µM	3.08 µM	3.86 µM
Cc1cccc2c1N(C(=O)/C=C\C(=O)O)C(c1c(C)[nH]c3ccccc13)C2 (stereo unspecified)	> 100 µM		> 100 µM	> 100 µM	46.3 µM		32.8 µM	> 100 µM	> 10 µM											
NS(=O)(=O)c1ccc(NC2=CC(=O)C(=O)c3ccccc32)cc1	> 100 µM	> 100 µM	> 100 µM	> 100 µM	> 100 µM	> 100 µM	> 100 µM	> 100 µM	> 100 µM											
OCC(O)C(O)C(O)c1nn(-c2ccc(Cl)cc2)c2nc3cc(Cl)c(Cl)cc3nc12 (stereo unspecified)	> 100 µM	> 100 µM	58.4 µM	85.1 µM	> 100 µM	> 100 µM		58.6 µM	11.1 µM											
CCOC(=O)C1C2CCC(C2)C1(CCl)C(=O)OCC (stereo unspecified)	> 100 µM	> 100 µM	> 100 µM	> 100 µM			> 100 µM	> 100 µM												
Cc1ccc(NC(=O)C(=O)C(C#N)c2nc(-c3ccc(-c4ccccc4)cc3)cs2)c(C)c1 (stereo unspecified)	> 100 µM	> 100 µM	> 100 µM	> 1 µM		> 100 µM	> 100 µM	> 100 µM	> 100 µM											
O=C1c2ccccc2C(=O)N1CCN(CCN1C(=O)c2ccccc2C1=O)Cn1cccn1	> 100 µM	> 100 µM			> 100 µM		> 100 µM	> 100 µM	> 100 µM											
O=C(c1ccccc1)N1C2CCC1C(C(F)(F)F)=C2C(F)(F)F	> 100 µM	> 100 µM	> 100 µM	> 100 µM	> 100 µM	> 100 µM	> 100 µM	> 100 µM	> 100 µM											
COc1c(C(=O)c2ccc([N+](=O)[O-])cc2)cc(C(C)(C)C)cc1C(C)(C)C	> 100 µM	27.7 µM		> 100 µM	56.9 µM	> 100 µM	32.1 µM	> 100 µM	> 100 µM											
NNC(=O)CNC(=O)c1ccc(Cl)cc1Cl	> 100 µM		> 100 µM	> 100 µM	> 100 µM	> 100 µM	> 100 µM	> 100 µM	> 100 µM											
CCCCCCCCOCC(O)COC(=O)CCCCCCC (stereo unspecified)	> 100 µM	> 100 µM	> 100 µM	> 100 µM			> 100 µM	> 100 µM												
Cc1cc2c(cc1C)[n+](=O)c(C(=O)C/C(=N/OCCCc1ccccc1)C(=O)Nc1cc(Cl)ccc1Cl)c(C)n2[O-]	> 100 µM	> 100 µM	> 100 µM	> 100 µM	> 100 µM	> 100 µM	> 100 µM	> 100 µM	> 100 µM											
CN(Cc1cc(Br)cc(Br)c1O)Cc1cc(Br)cc(Br)c1O	15.4 µM	17.4 µM	19.8 µM	22.3 µM	7.14 µM	20.2 µM	3.71 µM		49.3 µM	2.19 µM			1.14 µM	4.75 µM	3.28 µM	1.73 µM	1.34 µM		2.61 µM	12.9 µM
Cl.Fc1c[c-]c(-c2ccccn2)c(F)c1.[Pt].c1ccc(P(c2ccccc2)C([PH+](c2ccccc2)c2ccccc2)[PH+](c2ccccc2)c2ccccc2)cc1	20.7 µM	13.5 µM	32.8 µM	61.1 µM	9.86 µM	11.3 µM	4.53 µM		9.5 µM	2.84 µM	3.24 µM	17.1 µM	3.35 µM	2.78 µM	3.06 µM	2.62 µM	2.08 µM		3.18 µM	2.01 µM
N#Cc1c2c(c(N=P(c3ccccc3)(c3ccccc3)c3ccccc3)n3c1nc1ccccc13)CCCC2	> 100 µM	76.3 µM	22.4 µM		41.8 µM	> 100 µM	27.3 µM	> 100 µM	69.7 µM											
COC(=O)C(CC(C)C)NC(=O)NC12CC3CC(CC(F)(C3)C1)C2 (stereo unspecified)	> 100 µM	> 100 µM		> 100 µM	> 100 µM	> 100 µM	> 100 µM	> 100 µM	> 100 µM											
CCOC(=O)c1c(C)n2c(=O)cc(C)c3c(O)c(O)cc1c32	49.1 µM	30.5 µM	93.5 µM	51.6 µM	16.7 µM	55.3 µM	24.1 µM		> 100 µM	5.56 µM	15.9 µM	79.7 µM	3.98 µM	9.2 µM	10.9 µM	3.4 µM	4.67 µM		16.6 µM	35.6 µM
